Test results as given in patent EP2265599B1, “CRYSTAL FORM OF PHENYLAMINOPYRIMIDINE DERIVATIVE” (Natco Pharma Limited, priority 2008, dated 2009).

What was measured:
[1] = test system: 4910, 5310 and U87 glioma cells and MDAMB231 and ZR71 breast cancer cells; assay: Western blot analysis for pAKT and pERK (cell line not specified); type: cell-based; details: with and without radiation
Method: (§1) Western blot analysis of 4910, 5310 and U87 glioma cells and MDAMB231 and ZR71 breast cancer cells in the presence of specified concentrations of compounds were assessed as per standard protocols. Cells were treated with AN019, AN024 or Temozolomide at the specified concentrations. 24h after treatment, cells were collected and cell lysates extracted. Equal quantities of proteins were fractionated by SDS-PAGE. The fractionated proteins were blotted on to nylon membranes and immunoprobed for AKT, ERK and Pi3k. Breast cancer cell protein isolates were additionally immunoprobed for EGFR, ErbB1, ErbB2 and ErbB3.

[2] = test system: 5310 cells; assay: Western blot analysis for AKT, ERK and Pi3k, 5310; type: cell-based
Method: as §1

[3] = test system: Baf3Wt; assay: In vivo anti-leukemic activity, blast cell count in blood smears, Baf3Wt implanted nude mice; details: Imatinib 10mg/kg, AN019 20mg/kg, AN024 20mg/kg, oral gavage or ip from day 15; up to day 42
Excerpt: (§2) Blood smears were obtained via the tail vein or via the femoral vein every 6th day and blast cells counted and graphically represented.
(§3) Abdominal swelling and decrease in activity was monitored daily, blood smear taken via the tail vein or the femoral vein every 6th day and H&E stained as per standard protocols. 42 days after implantation, mice were sacrificed and spleens harvested.
(§4) Nude mice were intraperitoneally implanted with Baf3 mutant cells (wt, T315I, M351T or E255K). […] Blood was drawn from the femoral vein or tail vein every 6th day and blast cell count determined and graphically represented.

[4] = test system: Baf3M351T; assay: In vivo anti-leukemic activity, blast cell count in blood smears, Baf3M351T implanted nude mice; details: Imatinib 10mg/kg, AN019 20mg/kg, AN024 20mg/kg, oral gavage or ip from day 15; up to day 42
Excerpt: as §2, §3, §4

[5] = test system: 4910 human glioma xenograft cells; assay: Glioma radiation study, intracranially implanted 4910 cells; type: in vivo, Nude mice
Method: Nude mice were intracranially implanted with 4910 human glioma xenograft cells (1x10^6 cells). Ten days after implantation mice were treated with AN019, AN024 or temozolomide with or without radiation (5Gy/week). The experiment was terminated at day 40 post implantation.

[6] = test system: K562 luc human leukemia cells; assay: Low dose oral treatment of nude mice implanted with K562 luc cells (luciferase expression); type: in vivo; details: oral administration
Method: Nude mice (nu/nu) were implanted with K562 cells (1x106) normal/luc via tail vein. Five mice were used per group and divided into 24 groups + 2 control. All groups were implanted with K562 normal/luc cells. Of the 24 groups, 12 were used for luciferase studies whereas the other 12 were used for blood smear count studies.
Drugs were administered by oral gavage (2% gum acacia and 2% SLS in an aqueous suspension).

[7] = test system: K5621uc cells; assay: Drug temporal penetrance (Tp) after stopping drug treatment; type: in vivo, nude mice; details: AN019 20mg/kg, AN024 20mg/kg, Imatinib 10mg/kg, daily ip from day 15, stopped on day 35, imaged till day 45
Method: The temporal penetrance was calculated applying the following equation, Tp=. (((P)/(n))a -((P)/(n))ter)/(((P)/(n))a -((P)/(n))b) [formula]
Where: • P=photon counts at day 'a', day 'ter', or day 'b' where 'a' is the day when drug treatment was stopped and 'ter' is the day when the experiment was terminated and 'b' is the day where P is minimum after day a but before day 'ter'. • n=number of animals alive when P was measured.
The animals were imaged at 6 day intervals post transplantation. […] Drug treatment was stopped on day 35 and animals were imaged till day 45, and calculated as described in methods.

Compound: Cc1ccc(NC(=O)c2cc(C(F)(F)F)cc(C(F)(F)F)c2)cc1Nc1nccc(-c2cccnc2)n1 [AN019, (3,5-bis trifluoromethyl)-N-[4-methyl-3-(4-pyridin-3yl-pyrimidin-2ylamino)-phenyl]-benzamide]
- levels of pERK [1]: reduced significantly
- AKT expression levels [2]: decrease in AKT expression levels
- Levels of PI3k ([2]; without and after radiation): almost undetectable in AN019 treated cells without radiation but reappeared after radiation treatment
- blast cell count in blood smears [3]: complete regression of leukemic blast cells
- blast cell count in blood smears [4]: significant decrease in blast cell count
- intracranial tumours (size, appearance) ([5]; with radiation (5Gy/week)): tumor size was significantly reduced
- animals cured / no observable intracranial tumor ([5]; with radiation (5Gy/week), terminated at day 40): 6 of 10 animals
- intracranial tumours (size, appearance) ([5]; without radiation): showed tumours similar to AN024 treated animals
- animals cured / complete absence of intracranial tumours ([5]; without radiation, treatment from ten days after implantation, terminated at day 40): 6 of 10 animals
- luciferase expression ([6]; 1mg/kg): did not induce a decrease in luciferase expression
- luciferase expression ([6]; 5mg/kg): caused fixation of leukemia cells at constant expression levels
- luciferase expression ([6]; 10mg/kg): caused a decrease in luciferase expression
- luciferase expression ([6]; 20mg/kg): caused a decrease in luciferase expression
- Tp (temporal penetrance) [7]: 2.0
